Test results published in patent US8613914B2, “Peptidomimetic sulfamide compounds and antiviral uses thereof” (Novartis AG, priority 2009, dated 2013).

Target: HCV NS3-4A serine protease (full-length NS3-4A protein) (Hepatitis C virus genotype 1a (isolate 1) (HCV), UniProt P26664)
Assay: HCV NS3-4A protease assay
Format: biochemical, HCV genotype 1a
Details: strain HCV-1, fluorogenic peptide substrate, read-out: Protease assay Ex. 12 IC50
Experimental: The inhibitory activity of certain compounds of Table A against HCV NS3-4A serine protease is determined in a homogenous assay using the full-length NS3-4A protein (genotype 1a, strain HCV-1) and a commercially available internally-quenched fluorogenic peptide substrate as described by Taliani, M., et al. 1996 Anal. Biochem. 240:60-67, which is incorporated by reference in its entirety.

Chain of HCV NS3-4A serine protease (full-length NS3-4A protein) (P26664 1027-1657): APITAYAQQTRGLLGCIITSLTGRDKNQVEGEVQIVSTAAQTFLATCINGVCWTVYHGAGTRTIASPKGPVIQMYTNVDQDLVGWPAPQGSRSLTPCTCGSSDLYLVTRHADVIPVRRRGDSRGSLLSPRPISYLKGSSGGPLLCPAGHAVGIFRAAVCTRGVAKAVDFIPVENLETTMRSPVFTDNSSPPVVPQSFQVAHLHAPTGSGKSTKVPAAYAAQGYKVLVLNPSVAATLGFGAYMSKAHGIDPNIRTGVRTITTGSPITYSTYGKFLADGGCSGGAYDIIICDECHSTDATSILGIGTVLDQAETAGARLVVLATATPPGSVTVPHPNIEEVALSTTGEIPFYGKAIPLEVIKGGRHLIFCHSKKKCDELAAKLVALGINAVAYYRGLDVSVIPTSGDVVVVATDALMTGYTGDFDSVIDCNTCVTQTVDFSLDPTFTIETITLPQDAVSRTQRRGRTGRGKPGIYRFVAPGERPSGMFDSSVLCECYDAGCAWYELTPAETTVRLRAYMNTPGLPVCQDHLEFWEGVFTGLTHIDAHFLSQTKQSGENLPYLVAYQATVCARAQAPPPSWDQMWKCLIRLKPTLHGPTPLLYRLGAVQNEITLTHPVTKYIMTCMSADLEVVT
Chain of HCV NS3-4A serine protease (full-length NS3-4A protein) (P26664 1658-1711 partner): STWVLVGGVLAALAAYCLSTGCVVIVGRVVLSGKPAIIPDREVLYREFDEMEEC

Compound | IC50 [nM]
C=C[C@@H]1C[C@]1(NC(=O)[C@@H]1C[C@@]2(CN1C(=O)[C@@H](NC(=O)[C@@H](NC(=O)[C@H]1CCCN1C(C)C)C(C)(C)C)C(C)(C)C)C(C)(C)C21CCC1)C(=O)NS(=O)(=O)N1CCCC1 [Compound 21, (5R,8S)-7-[(2S)-2-{[(2S)-2-({[(2R)-1-isopropylpyrrolidin-2-yl]carbonyl}amino)-3,3-dimethylbutanoyl]amino}-3,3-dimethylbutanoyl]-10,10-dimethyl-N-{(1R,2S)-1-[(pyrrolidin-1-ylsulfonyl)carbamoyl]-2-vinylcyclopropyl}-7-azadispiro[3.0.4.1]decane-8-carboxamide] | 35
C=C[C@@H]1C[C@]1(NC(=O)[C@@H]1C[C@@]2(CN1C(=O)[C@@H](NC(=O)[C@@H](NC(=O)[C@@H]1CCCCN1C(C)C)C1CCOCC1)C(C)(C)C)C(C)(C)C21CCC1)C(=O)NS(=O)(=O)N1CCCC1 [Compound 44, (5R,8S)-7-[(2S)-2-{[(2S)-2-({[(2S)-1-isopropylpiperidin-2-yl]carbonyl}amino)-2-(tetrahydro-2H-pyran-4-yl)acetyl]amino}-3,3-dimethylbutanoyl]-10,10-dimethyl-N-{(1R,2S)-1-[(pyrrolidin-1-ylsulfonyl)carbamoyl]-2-vinylcyclopropyl}-7-azadispiro[3.0.4.1]decane-8-carboxamide] | 15
C=C[C@@H]1C[C@]1(NC(=O)[C@@H]1C[C@@]2(CN1C(=O)[C@@H](NC(=O)[C@@H](NC(=O)[C@@H]1CCCCN1C(C)C)C1CCCCC1)C1(C)CCOCC1)C(C)(C)C21CCC1)C(=O)NS(=O)(=O)N(CC)CC [Compound 150, (5R,8S)-7-[(2S)-2-{[(2S)-2-cyclohexyl-2-({[(2S)-1-isopropylpiperidin-2-yl]carbonyl}amino)acetyl]amino}-2-(4-methyltetrahydro-2H-pyran-4-yl)acetyl]-N-[(1R,2S)-1-{[(diethylamino)sulfonyl]carbamoyl}-2-vinylcyclopropyl]-10,10-dimethyl-7-azadispiro[3.0.4.1]decane-8-carboxamide] | 2.4
C=C[C@@H]1C[C@]1(NC(=O)[C@@H]1C[C@@]2(CN1C(=O)[C@@H](NC(=O)[C@@H](NC(=O)[C@@H]1CCCCN1C(C)C)C1(C)CCOCC1)C1(C)CCCCC1)C(C)(C)C21CCC1)C(=O)NS(=O)(=O)N(CC)CC [Compound 158, (5R,8S)-N-[(1R,2S)-1-{[(diethylamino)sulfonyl]carbamoyl}-2-vinylcyclopropyl]-7-[(2S)-2-{[(2S)-2-({[(2S)-1-isopropylpiperidin-2-yl]carbonyl}amino)-2-(4-methyltetrahydro-2H-pyran-4-yl)acetyl]amino}-2-(1-methylcyclohexyl)acetyl]-10,10-dimethyl-7-azadispiro[3.0.4.1]decane-8-carboxamide] | 22
C=C[C@@H]1C[C@]1(NC(=O)[C@@H]1C[C@@]2(CN1C(=O)[C@@H](NC(=O)[C@@H](NC(=O)[C@H]1CCCN1C(C)C)C1CCCCC1)C(C)(C)C)C(C)(C)C21CCC1)C(=O)NS(=O)(=O)N1CCCC1 [Compound 16, (5R,8S)-7-[(2S)-2-{[(2S)-2-cyclohexyl-2-({[(2R)-1-isopropylpyrrolidin-2-yl]carbonyl}amino)acetyl]amino}-3,3-dimethylbutanoyl]-10,10-dimethyl-N-{(1R,2S)-1-[(pyrrolidin-1-ylsulfonyl)carbamoyl]-2-vinylcyclopropyl}-7-azadispiro[3.0.4.1]decane-8-carboxamide] | 2.3
C=C[C@@H]1C[C@]1(NC(=O)[C@@H]1C[C@@]2(CN1C(=O)[C@@H](NC(=O)[C@@H](NC(=O)[C@H]1CCCCN1C(C)C)C1CCCCC1)C(C)(C)C)C(C)(C)C21CCC1)C(=O)NS(=O)(=O)N(C)CCC [Compound 114, (5R,8S)-7-[(2S)-2-{[(2S)-2-cyclohexyl-2-({[(2R)-1-isopropylpiperidin-2-yl]carbonyl}amino)acetyl]amino}-3,3-dimethylbutanoyl]-10,10-dimethyl-N-[(1R,2S)-1-({[methyl(propyl)amino]sulfonyl}carbamoyl)-2-vinylcyclopropyl]-7-azadispiro[3.0.4.1]decane-8-carboxamide] | 4.5
C=C[C@@H]1C[C@]1(NC(=O)[C@@H]1C[C@@]2(CN1C(=O)[C@@H](NC(=O)[C@@H](NC(=O)c1cc3ccccc3o1)C1CCCCC1)C(C)(C)C)C(C)(C)C21CCC1)C(=O)NS(=O)(=O)N1CCCC1 [Compound 191, (5R,8S)-7-[(2S)-2-({[(1-benzofuran-2-ylcarbonyl)amino](cyclohexyl)acetyl}amino)-3,3-dimethylbutanoyl]-10,10-dimethyl-N-{(1R,2S)-1-[(pyrrolidin-1-ylsulfonyl)carbamoyl]-2-vinylcyclopropyl}-7-azadispiro[3.0.4.1]decane-8-carboxamide] | 55
C=C[C@@H]1C[C@]1(NC(=O)[C@@H]1C[C@@]2(CN1C(=O)[C@@H](NC(=O)[C@@H](NC(=O)OC(C)(C)C)C(C)(C)C)C(C)(C)C)C(C)(C)C21CCC1)C(=O)NS(=O)(=O)N1CCCC1 [Compound 2, tert-butyl [(1S)-1-{[(1S)-1-{[(5R,8S)-10,10-dimethyl-8-({(1R,2S)-1-[(pyrrolidin-1-ylsulfonyl)carbamoyl]-2-vinylcyclopropyl}carbamoyl)-7-azadispiro[3.0.4.1]dec-7-yl]carbonyl}-2,2-dimethylpropyl]carbamoyl}-2,2-dimethylpropyl]carbamate] | 750
C=C[C@@H]1C[C@]1(NC(=O)[C@@H]1C[C@@]2(CN1C(=O)[C@@H](NC(=O)[C@@H](NC(=O)[C@@H]1CCCCN1C(C)C)C1CCCCC1)C(C)(C)C)C(C)(C)C21CCC1)C(=O)NS(=O)(=O)N(C)OC [Compound 55, (5R,8S)-7-[(2S)-2-{[(2S)-2-cyclohexyl-2-({[(2S)-1-isopropylpiperidin-2-yl]carbonyl}amino)acetyl]amino}-3,3-dimethylbutanoyl]-N-[(1R,2S)-1-({[methoxy(methyl)amino]sulfonyl}carbamoyl)-2-vinylcyclopropyl]-10,10-dimethyl-7-azadispiro[3.0.4.1]decane-8-carboxamide] | 1.4
C=C[C@@H]1C[C@]1(NC(=O)[C@@H]1C[C@@]2(CN1C(=O)[C@@H](NC(=O)[C@@H](NC(=O)[C@@H]1CCCN1CC(F)(F)F)C1CCCCC1)C1CCOCC1)C(C)(C)C21CCC1)C(=O)NS(=O)(=O)N1CCCC1 [Compound 71, (5R,8S)-7-[(2S)-2-{[(2S)-2-cyclohexyl-2-({[(2S)-1-(2,2,2-trifluoroethyl)pyrrolidin-2-yl]carbonyl}amino)acetyl]amino}-2-(tetrahydro-2H-pyran-4-yl)acetyl]-10,10-dimethyl-N-{(1R,2S)-1-[(pyrrolidin-1-ylsulfonyl)carbamoyl]-2-vinylcyclopropyl}-7-azadispiro[3.0.4.1]decane-8-carboxamide] | 40
C=C[C@@H]1C[C@]1(NC(=O)[C@@H]1C[C@@]2(CN1C(=O)[C@@H](NC(=O)[C@@H](NC(=O)[C@@H]1CCCCN1C(C)C)C1CCCCC1)C(C)(C)C)C(C)(C)C21CCC1)C(=O)NS(=O)(=O)N1CCCCC1 [Compound 113, (5R,8S)-7-[(2S)-2-{[(2S)-2-cyclohexyl-2-({[(2S)-1-isopropylpiperidin-2-yl]carbonyl}amino)acetyl]amino}-3,3-dimethylbutanoyl]-10,10-dimethyl-N-{(1R,2S)-1-[(piperidin-1-ylsulfonyl)carbamoyl]-2-vinylcyclopropyl}-7-azadispiro[3.0.4.1]decane-8-carboxamide] | 3.5
C=C[C@@H]1C[C@]1(NC(=O)[C@@H]1C[C@@]2(CN1C(=O)[C@@H](NC(=O)[C@@H](NC(=O)CN1CCN(C)CC1)C1CCCCC1)C(C)(C)C)C(C)(C)C21CCC1)C(=O)NS(=O)(=O)N1CCCC1 [Compound 202, (5R,8S)-7-{(2S)-2-[(cyclohexyl{[(4-methylpiperazin-1-yl)acetyl]amino}acetyl)amino]-3,3-dimethylbutanoyl}-10,10-dimethyl-N-{(1R,2S)-1-[(pyrrolidin-1-ylsulfonyl)carbamoyl]-2-vinylcyclopropyl}-7-azadispiro[3.0.4.1]decane-8-carboxamide] | 20
C=C[C@@H]1C[C@]1(NC(=O)[C@@H]1C[C@@]2(CN1C(=O)[C@@H](NC(=O)[C@@H](NC(=O)[C@@H]1CCCCN1C(C)C)C1CCCCC1)C(C)(C)C)C(C)(C)C21CCC1)C(=O)NS(=O)(=O)N(CC)C(C)C [Compound 110, (5R,8S)-7-[(2S)-2-{[(2S)-2-cyclohexyl-2-({[(2S)-1-isopropylpiperidin-2-yl]carbonyl}amino)acetyl]amino}-3,3-dimethylbutanoyl]-N-[(1R,2S)-1-({[ethyl(isopropyl)amino]sulfonyl}carbamoyl)-2-vinylcyclopropyl]-10,10-dimethyl-7-azadispiro[3.0.4.1]decane-8-carboxamide] | 8
C=C[C@@H]1C[C@]1(NC(=O)[C@@H]1C[C@@]2(CN1C(=O)[C@@H](NC(=O)[C@@H](NC(=O)[C@@H]1CCCN1CC)C1CCCC1)C(C)(C)C)C(C)(C)C21CCC1)C(=O)NS(=O)(=O)N(CC)CC [Compound 97, (5R,8S)-7-[(2S)-2-{[(2S)-2-cyclopentyl-2-({[(2S)-1-ethylpyrrolidin-2-yl]carbonyl}amino)acetyl]amino}-3,3-dimethylbutanoyl]-N-[(1R,2S)-1-{[(diethylamino)sulfonyl]carbamoyl}-2-vinylcyclopropyl]-10,10-dimethyl-7-azadispiro[3.0.4.1]decane-8-carboxamide] | 10
C=C[C@@H]1C[C@]1(NC(=O)[C@@H]1C[C@@]2(CN1C(=O)[C@@H](NC(=O)[C@@H](NC(=O)[C@@H]1CCCN(CC)C1)C(C)(C)C)C(C)(C)C)C(C)(C)C21CCC1)C(=O)NS(=O)(=O)N1CCOCC1 [Compound 7, (5R,8S)-7-[(2S)-2-{[(2S)-2-({[(3R)-1-ethylpiperidin-3-yl]carbonyl}amino)-3,3-dimethylbutanoyl]amino}-3,3-dimethylbutanoyl]-10,10-dimethyl-N-{(1R,2S)-1-[(morpholin-4-ylsulfonyl)carbamoyl]-2-vinylcyclopropyl}-7-azadispiro[3.0.4.1]decane-8-carboxamide] | 450
